# Measured values as given in patent publication US11655459B2, “Methods for reprogramming somatic cells” (Whitehead Institute for Biomedical Research, priority 2003, dated 2023).
# “And” between values parts separate entries of the source, which are not always exact repeats. Equal values may be shown once.
# System: fibroblasts derived from tail biopsies of mice that carry the inducible Oct4 transgene
# Experiment: Nuclear transfer experiment: in vitro development of clones derived from Oct4-induced fibroblasts
# Type: cell-based, mouse
# Method: Nuclear transfer was performed on fibroblasts derived from tail biopsies of mice that carry the inducible Oct4 transgene. Dox induction was for 24 hours prior to nuclear transfer. Cloned embryos were then activated and cultured to the blastocyst stage to derive ES cells as described previously (Hochedlinger and Jaenisch, 2002). […] [table]
# [1] = Dox induction 24 hours prior to nuclear transfer, fraction of eggs with pronucleus formation, single experiment, listed as Dox
# [2] = Oct4 induced, Expt. #3 and #4 together
structure (smiles),measurement,setting,value
C[C@H]1c2cccc(O)c2C(=O)C2=C(O)[C@]3(O)C(=O)C(C(N)=O)=C(O)[C@@H](N(C)C)[C@@H]3[C@@H](O)[C@@H]21 [doxycycline],Blastocysts (% PN),[1],27% and 21%
same,ES lines (% PN),[1],5% and 9%
same,Blastocysts (number),"Dox induction 24 hours prior to nuclear transfer, single experiment",10
same,ES lines (number),"Dox induction 24 hours prior to nuclear transfer, single experiment, listed as Dox",2 and 4
same,"Blastocysts (% PN), average of experiments",[2],24%
same,"ES lines (% PN), average of experiments",[2],7%
